# pEC50: −log10 of the molar value.
# Molecular target: T1, hFXR (Homo sapiens, UniProt Q96RI1)
# T1 construct: expressed in transfected cells; host or cells: CV-1 cells
# T1 sequence (Q96RI1 1-486): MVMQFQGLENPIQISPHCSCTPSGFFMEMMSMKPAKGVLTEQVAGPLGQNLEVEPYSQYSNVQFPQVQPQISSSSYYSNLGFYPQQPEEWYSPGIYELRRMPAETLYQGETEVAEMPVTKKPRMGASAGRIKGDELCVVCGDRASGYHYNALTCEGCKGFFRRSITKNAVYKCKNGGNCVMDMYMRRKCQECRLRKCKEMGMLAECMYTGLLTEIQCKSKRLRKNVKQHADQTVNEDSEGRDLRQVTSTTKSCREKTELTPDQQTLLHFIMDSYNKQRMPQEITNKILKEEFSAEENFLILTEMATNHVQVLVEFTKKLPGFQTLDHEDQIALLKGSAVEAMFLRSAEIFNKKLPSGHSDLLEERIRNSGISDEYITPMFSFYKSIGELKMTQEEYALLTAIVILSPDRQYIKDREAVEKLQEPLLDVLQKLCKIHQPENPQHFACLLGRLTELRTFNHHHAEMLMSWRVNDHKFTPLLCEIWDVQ
# T1 sequence (P19793 1-462 partner): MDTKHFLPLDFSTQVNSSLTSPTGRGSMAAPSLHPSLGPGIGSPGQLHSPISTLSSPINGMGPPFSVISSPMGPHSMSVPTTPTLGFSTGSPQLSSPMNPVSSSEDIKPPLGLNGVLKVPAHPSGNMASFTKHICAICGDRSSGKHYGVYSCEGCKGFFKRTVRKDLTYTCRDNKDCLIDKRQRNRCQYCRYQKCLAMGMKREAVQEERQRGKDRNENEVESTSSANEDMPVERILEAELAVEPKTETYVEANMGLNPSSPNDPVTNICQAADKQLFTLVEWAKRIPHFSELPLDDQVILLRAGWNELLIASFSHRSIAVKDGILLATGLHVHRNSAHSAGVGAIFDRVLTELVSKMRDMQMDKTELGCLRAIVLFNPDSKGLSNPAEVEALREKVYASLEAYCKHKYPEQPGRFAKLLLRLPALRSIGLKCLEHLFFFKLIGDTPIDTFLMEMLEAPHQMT
# Experiment: In Vitro FXR Assay (TK): TK-ECRE-luc reporter in transfected CV-1 cells
# Assay type: cell-based
# Settings: 18 hrs, luminescence, maximum efficacy of <25% of the Fexarmine control classified as '+'
# Summary of the method: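 CV-1, transient co-transfection: hFXR + hRXR + TK-ECRE-luc + pCMX-YFP; charcoal-stripped serum. 18 h post-transfection, DMSO serial dilutions of cpd added; 18 h incubation; lysis, luminescence.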
row,pEC50,Structure (SMILES)
1,≥ 6.60,"CNC(=O)O[C@H]1CC[C@H](C(=O)N(C[C@H]2CC[C@H](c3ccc(OC)c(C#N)n3)CC2)c2cccc(-c3cnn(C4CC4)c3)c2)CC1 [Compound 5.23, trans-4-(((trans-4-(6-Cyano-5-methoxypyridin-2-yl)cyclohexyl)methyl)(3-(1-cyclopropyl-1H-pyrazol-4-yl)phenyl)carbamoyl)cyclohexyl methylcarbamate]"
2,≥ 6.60,"CNC(=O)O[C@H]1CC[C@H](C(=O)N(C[C@H]2CC[C@H](c3ccc(OC)c(C)n3)CC2)c2cc(-c3cnn(C(C)C)c3)ccn2)CC1 [Compound 5.24, trans-4-((4-(1-Isopropyl-1H-pyrazol-4-yl)pyridin-2-yl)((trans-4-(5-methoxy-6-methylpyridin-2-yl)cyclohexyl)methyl)carbamoyl)cyclohexyl methylcarbamate]"
3,≥ 6.60,"CNC(=O)O[C@H]1CC[C@H](C(=O)N(C[C@H]2CC[C@H](c3ccc(OC)c(C#N)n3)CC2)c2cc(-c3cnn(C(C)C)c3)ccn2)CC1 [Compound 5.26, trans-4-(((trans-4-(6-Cyano-5-methoxypyridin-2-yl)cyclohexyl)methyl)(4-(1-isopropyl-1H-pyrazol-4-yl)pyridin-2-yl)carbamoyl)cyclohexyl methylcarbamate]"
4,≥ 6.60,"CNC(=O)O[C@H]1CC[C@H](C(=O)N(C[C@H]2CC[C@H](c3ccc(OC)c(C#N)n3)CC2)c2cccc(-c3cnn(C(C)C)c3)c2)CC1 [Compound 5.28, trans-4-(((trans-4-(6-Cyano-5-methoxypyridin-2-yl)cyclohexyl)methyl)(3-(1-isopropyl-1H-pyrazol-4-yl)phenyl)carbamoyl)cyclohexyl methylcarbamate]"
5,≥ 6.60,"CCNC(=O)O[C@H]1CC[C@H](C(=O)N(C[C@H]2CC[C@H](c3ccc(OC)c(C#N)n3)CC2)c2cc(-c3cnn(C(C)C)c3)ccn2)CC1 [Compound 5.29, trans-4-(((trans-4-(6-Cyano-5-methoxypyridin-2-yl)cyclohexyl)methyl)(4-(1-isopropyl-1H-pyrazol-4-yl)pyridin-2-yl)carbamoyl)cyclohexyl ethylcarbamate]"
6,≥ 6.60,"CNC(=O)O[C@H]1CC[C@H](C(=O)N(C[C@H]2CC[C@H](c3ccc(OC)c(C)n3)CC2)c2cccc(-c3coc(C(C)C)n3)c2)CC1 [Compound 5.31, trans-4-((3-(2-Isopropyloxazol-4-yl)phenyl)((trans-4-(5-methoxy-6-methylpyridin-2-yl)cyclohexyl)methyl)carbamoyl)cyclohexyl methylcarbamate]"
7,≥ 6.60,"CNC(=O)O[C@H]1CC[C@H](C(=O)N(C[C@H]2CC[C@H](c3ccc(OC)c(C)n3)CC2)c2cccc(-c3coc(C4CC4)n3)c2)CC1 [Compound 5.32, trans-4-((3-(2-Cyclopropyloxazol-4-yl)phenyl)((trans-4-(5-methoxy-6-methylpyridin-2-yl)cyclohexyl)methyl)carbamoyl)cyclohexyl methylcarbamate]"
8,≥ 6.60,"CNC(=O)O[C@H]1CC[C@H](C(=O)N(C[C@H]2CC[C@H](c3ccc(OC)c(C)n3)CC2)c2cc(-c3coc(C4CC4)n3)ccn2)CC1 [Compound 5.34, trans-4-((4-(2-Cyclopropyloxazol-4-yl)pyridine-2-yl)((trans-4-(5-methoxy-6-methylpyridin-2-yl)cyclohexyl)methyl)carbamoyl)cyclohexyl methylcarbamate]"
9,≥ 6.60,"CNC(=O)O[C@H]1CC[C@H](C(=O)N(C[C@H]2CC[C@H](c3ccc(OC)c(C#N)c3)CC2)c2cccc(-c3coc(C4CC4)n3)c2)CC1 [Compound 5.35, trans-4-(((trans-4-(3-Cyano-4-methoxyphenyl)cyclohexyl)methyl)(3-(2-cyclopropyloxazol-4-yl)phenyl)carbamoyl)cyclohexyl methylcarbamate]"
10,≥ 6.60,"CNC(=O)O[C@H]1CC[C@H](C(=O)N(C[C@H]2CC[C@H](c3ccc(OC)c(C)c3)CC2)c2cccc(-c3ccc(N(C)C)nc3)c2)CC1 [Compound 5.36, trans-4-((3-(6-(Dimethylamino)pyridine-3-yl)phenyl)((trans-4-(4-methoxy-3-methylphenyl)cyclohexyl)methyl)carbamoyl)cyclohexyl methylcarbamate]"
11,≥ 6.60,"CNC(=O)O[C@H]1CC[C@H](C(=O)N(C[C@H]2CC[C@H](c3ccc(OC)c(C#N)n3)CC2)c2cccc(-c3coc(C4CC4)n3)c2)CC1 [Compound 5.42, trans-4-(((trans-4-(6-Cyano-5-methoxypyridin-2-yl)cyclohexyl)methyl)(3-(2-cyclopropyloxazol-4-yl)phenyl)carbamoyl)cyclohexyl methylcarbamate]"
12,≥ 6.60,"CNC(=O)O[C@H]1CC[C@H](C(=O)N(C[C@H]2CC[C@H](c3ccc(OC)c(C)n3)CC2)c2cc(-c3coc(C(C)C)n3)ccn2)CC1 [Compound 5.43, trans-4-((4-(2-Isopropyloxazol-4-yl)pyridine-2-yl)((trans-4-(5-methoxy-6-methylpyridin-2-yl)cyclohexyl)methyl)carbamoyl)cyclohexyl methylcarbamate]"

# Second part, the molecule before the results:
row,Structure (SMILES),pEC50
1,"CCNC(=O)O[C@H]1CC[C@H](C(=O)N(C[C@H]2CC[C@H](c3ccc(OC)c(C)n3)CC2)c2cc(-c3cnn(C(C)C)c3)ccn2)CC1 [Compound 5.25, trans-4-((4-(1-Isopropyl-1H-pyrazol-4-yl)pyridin-2-yl)((trans-4-(5-methoxy-6-methylpyridin-2-yl)cyclohexyl)methyl)carbamoyl)cyclohexyl ethylcarbamate]",≥ 6.60
2,"CNC(=O)O[C@H]1CC[C@H](C(=O)N(C[C@H]2CC[C@H](c3ccc(OC)c(C#N)n3)CC2)c2cc(-c3cnn(C4CC4)c3)ccn2)CC1 [Compound 5.27, trans-4-(((trans-4-(6-Cyano-5-methoxypyridin-2-yl)cyclohexyl)methyl)(4-(1-cyclopropyl-1H-pyrazol-4-yl)pyridin-2-yl)carbamoyl)cyclohexyl methylcarbamate]",≥ 6.60
3,"CNC(=O)O[C@H]1CC[C@H](C(=O)N(C[C@H]2CC[C@H](c3ccc(OC)c(C)c3)CC2)c2cccc(-c3coc(C(C)C)n3)c2)CC1 [Compound 5.30, trans-4-((3-(2-Isopropyloxazol-4-yl)phenyl)((trans-4-(4-methoxy-3-methylphenyl)cyclohexyl)methyl)carbamoyl)cyclohexyl methylcarbamate]",≥ 6.60
4,"CNC(=O)O[C@H]1CC[C@H](C(=O)N(C[C@H]2CC[C@H](c3ccc(OC)c(C)c3)CC2)c2cc(-c3coc(C4CC4)n3)ccn2)CC1 [Compound 5.33, trans-4-((4-(2-Cyclopropyloxazol-4-yl)pyridine-2-yl)((trans-4-(4-methoxy-3-methylphenyl)cyclohexyl)methyl)carbamoyl)cyclohexyl methylcarbamate]",≥ 6.60
5,"CNC(=O)O[C@H]1CC[C@H](C(=O)N(C[C@H]2CC[C@H](c3ccc(OC)c(C)c3)CC2)c2cccc(-c3ccc(C4CC4)nc3)c2)CC1 [Compound 5.37, trans-4-((3-(6-Cyclopropylpyridin-3-yl)phenyl)((trans-4-(4-methoxy-3-methylphenyl)cyclohexyl)methyl)carbamoyl)cyclohexyl methylcarbamate]",≥ 6.60
6,"CNC(=O)O[C@H]1CC[C@H](C(=O)N(C[C@H]2CC[C@H](c3ccc(OC)c(C)c3)CC2)c2cccc(-c3cnc(N(C)C)nc3)c2)CC1 [Compound 5.38, trans-4-((3-(2-(Dimethylamino)pyrimidin-5-yl)phenyl)((trans-4-(4-methoxy-3-methylphenyl)cyclohexyl)methyl)carbamoyl)cyclohexyl methylcarbamate]",≥ 6.60
7,"CNC(=O)O[C@H]1CC[C@H](C(=O)N(C[C@H]2CC[C@H](c3ccc(OC)c(C#N)c3)CC2)c2cc(-c3coc(C4CC4)n3)ccn2)CC1 [Compound 5.39, trans-4-(((trans-4-(3-Cyano-4-methoxyphenyl)cyclohexyl)methyl)(4-(2-cyclopropyloxazol-4-yl)pyridine-2-yl)carbamoyl)cyclohexyl methylcarbamate]",≥ 6.60
8,"CNC(=O)O[C@H]1CC[C@H](C(=O)N(C[C@H]2CC[C@H](c3ccc(OC)c(C)c3)CC2)c2cc(-c3ccc(N(C)C)nc3)ccn2)CC1 [Compound 5.40, trans-4-((6-(Dimethylamino)-[3,4′-bipyridin]-2′-yl)((trans-4-(4-methoxy-3-methylphenyl)cyclohexyl)methyl)carbamoyl)cyclohexyl methylcarbamate]",≥ 6.60
9,"CNC(=O)O[C@H]1CC[C@H](C(=O)N(C[C@H]2CC[C@H](c3ccc(OC)c(C)n3)CC2)c2cccc(-c3ccc(N(C)C)nc3)c2)CC1 [Compound 5.41, trans-4-((3-(6-((Dimethylamino)pyridine-3-yl)phenyl)((trans-4-(5-methoxy-6-methylpyridin-2-yl)cyclohexyl)methyl)carbamoyl)cyclohexyl methylcarbamate]",≥ 6.60
